{"source": "the supplement of paper PMC10307832", "test_in_all_cases": "relative viability (nuclei count vs DMSO), 5 days (fraction); higher = more cells survive", "key": {"NCI-H1975": {"tested_on": "NCI-H1975", "summary_of_the_method": "(§1)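 Nuclei were stained with Hoechst during a one-step fixation (final 0.05% Triton X-100, 1% formaldehyde, 1 ug/ml Hoechst) carried out 5 days after dosing, then counted on 4× images. The cells, lung cancer lines in 1536-well plates, had been dosed by pin tool the day after seeding with one drug alone or a fixed anchor-drug dose plus five library-drug doses (not always all listed) in √10 steps. Relative viability is the nuclei count in treated wells divided by that in vehicle wells, and each value is the median of duplicate plates.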"}, "NCI-H460": {"tested_on": "NCI-H460", "summary_of_the_method": "as §1"}, "NCI-H441": {"tested_on": "NCI-H441", "summary_of_the_method": "as §1"}, "SK-LU-1": {"tested_on": "SK-LU-1", "summary_of_the_method": "as §1"}, "NCI-H1944": {"tested_on": "NCI-H1944", "summary_of_the_method": "as §1"}, "PC-3 [JPC-3]": {"tested_on": "PC-3 [JPC-3]", "summary_of_the_method": "as §1"}, "NCI-H1755": {"tested_on": "NCI-H1755", "summary_of_the_method": "as §1"}, "NCI-H2347": {"tested_on": "NCI-H2347", "summary_of_the_method": "as §1"}, "EMC-BAC-2": {"tested_on": "EMC-BAC-2", "summary_of_the_method": "as §1"}, "NCI-H1355": {"tested_on": "NCI-H1355", "summary_of_the_method": "as §1"}, "LCLC-97TM1": {"tested_on": "LCLC-97TM1", "summary_of_the_method": "as §1"}, "NCI-H1793": {"tested_on": "NCI-H1793", "summary_of_the_method": "as §1"}, "NCI-H2126": {"tested_on": "NCI-H2126", "summary_of_the_method": "as §1"}, "NCI-H727": {"tested_on": "NCI-H727", "summary_of_the_method": "as §1"}, "NCI-H647": {"tested_on": "NCI-H647", "summary_of_the_method": "as §1"}, "NCI-H1993": {"tested_on": "NCI-H1993", "summary_of_the_method": "as §1"}, "NCI-H520": {"tested_on": "NCI-H520", "summary_of_the_method": "as §1"}, "NCI-H2009": {"tested_on": "NCI-H2009", "summary_of_the_method": "as §1"}, "SW 1573": {"tested_on": "SW 1573", "summary_of_the_method": "as §1"}, "PC-14": {"tested_on": "PC-14", "summary_of_the_method": "as §1"}, "ABC-1": {"tested_on": "ABC-1", "summary_of_the_method": "as §1"}, "NCI-H1666": {"tested_on": "NCI-H1666", "summary_of_the_method": "as §1"}}, "data": [{"compound": "Cc1cnc(-c2cnc(NCCNc3ccc(C#N)cn3)nc2-c2ccc(Cl)cc2Cl)[nH]1", "note": "+ C[C@]1(O)C[C@@H](c2nc(-c3ccc4ccc(-c5ccccc5)nc4c3)c3c(N)nccn32)C1 [Linsitinib] (partner 1 µM)", "values": [{"measurement": "relative viability", "setting": "NCI-H1975; first compound 0.08 µM", "value": 1}, {"measurement": "relative viability", "setting": "NCI-H1975; first compound 0.253 µM", "value": 0.847}, {"measurement": "relative viability", "setting": "NCI-H1975; first compound 0.8 µM", "value": 0.836}, {"measurement": "relative viability", "setting": "NCI-H1975; first compound 2.53 µM", "value": 0.603}, {"measurement": "relative viability", "setting": "NCI-H460; first compound 0.08 µM", "value": 0.918}, {"measurement": "relative viability", "setting": "NCI-H460; first compound 0.253 µM", "value": 0.623}, {"measurement": "relative viability", "setting": "NCI-H460; first compound 0.8 µM", "value": 0.974}, {"measurement": "relative viability", "setting": "NCI-H460; first compound 2.53 µM", "value": 0.782}, {"measurement": "relative viability", "setting": "NCI-H441; first compound 0.08 µM", "value": 0.662}, {"measurement": "relative viability", "setting": "NCI-H441; first compound 0.253 µM", "value": 0.445}, {"measurement": "relative viability", "setting": "NCI-H441; first compound 0.8 µM", "value": 0.606}, {"measurement": "relative viability", "setting": "NCI-H441; first compound 2.53 µM", "value": 0.519}, {"measurement": "relative viability", "setting": "SK-LU-1; first compound 0.08 µM", "value": 1.13}, {"measurement": "relative viability", "setting": "SK-LU-1; first compound 0.253 µM", "value": 1.12}, {"measurement": "relative viability", "setting": "SK-LU-1; first compound 0.8 µM", "value": 1.32}, {"measurement": "relative viability", "setting": "SK-LU-1; first compound 2.53 µM", "value": 1.09}, {"measurement": "relative viability", "setting": "NCI-H1944; first compound 0.08 µM", "value": 1.36}, {"measurement": "relative viability", "setting": "NCI-H1944; first compound 0.8 µM", "value": 1.23}, {"measurement": "relative viability", "setting": "NCI-H1944; first compound 2.53 µM", "value": 1.21}, {"measurement": "relative viability", "setting": "PC-3 [JPC-3]; first compound 0.08 µM", "value": 0.93}, {"measurement": "relative viability", "setting": "PC-3 [JPC-3]; first compound 0.253 µM", "value": 0.858}, {"measurement": "relative viability", "setting": "PC-3 [JPC-3]; first compound 0.8 µM", "value": 0.943}, {"measurement": "relative viability", "setting": "PC-3 [JPC-3]; first compound 2.53 µM", "value": 0.964}, {"measurement": "relative viability", "setting": "NCI-H1755; first compound 0.08 µM", "value": 1.03}, {"measurement": "relative viability", "setting": "NCI-H1755; first compound 0.253 µM", "value": 0.856}, {"measurement": "relative viability", "setting": "NCI-H1755; first compound 0.8 µM", "value": 0.958}, {"measurement": "relative viability", "setting": "NCI-H1755; first compound 2.53 µM", "value": 0.991}, {"measurement": "relative viability", "setting": "NCI-H2347; first compound 0.08 µM", "value": 1.08}, {"measurement": "relative viability", "setting": "NCI-H2347; first compound 0.253 µM", "value": 0.72}, {"measurement": "relative viability", "setting": "NCI-H2347; first compound 0.8 µM", "value": 1}, {"measurement": "relative viability", "setting": "NCI-H2347; first compound 2.53 µM", "value": 1.02}, {"measurement": "relative viability", "setting": "EMC-BAC-2; first compound 0.08 µM", "value": 0.852}, {"measurement": "relative viability", "setting": "EMC-BAC-2; first compound 0.253 µM", "value": 0.792}, {"measurement": "relative viability", "setting": "EMC-BAC-2; first compound 0.8 µM", "value": 0.814}, {"measurement": "relative viability", "setting": "EMC-BAC-2; first compound 2.53 µM", "value": 0.83}, {"measurement": "relative viability", "setting": "NCI-H1355; first compound 0.08 µM", "value": 0.88}, {"measurement": "relative viability", "setting": "NCI-H1355; first compound 0.253 µM", "value": 0.841}, {"measurement": "relative viability", "setting": "NCI-H1355; first compound 0.8 µM", "value": 0.765}, {"measurement": "relative viability", "setting": "NCI-H1355; first compound 2.53 µM", "value": 0.732}, {"measurement": "relative viability", "setting": "LCLC-97TM1; first compound 0.08 µM", "value": 0.206}, {"measurement": "relative viability", "setting": "LCLC-97TM1; first compound 0.253 µM", "value": 0.177}, {"measurement": "relative viability", "setting": "LCLC-97TM1; first compound 0.8 µM", "value": 0.172}, {"measurement": "relative viability", "setting": "LCLC-97TM1; first compound 2.53 µM", "value": 0.208}, {"measurement": "relative viability", "setting": "NCI-H1793; first compound 0.08 µM", "value": 1.16}, {"measurement": "relative viability", "setting": "NCI-H1793; first compound 0.253 µM", "value": 0.822}, {"measurement": "relative viability", "setting": "NCI-H1793; first compound 0.8 µM", "value": 0.809}, {"measurement": "relative viability", "setting": "NCI-H1793; first compound 2.53 µM", "value": 0.916}, {"measurement": "relative viability", "setting": "NCI-H2126; first compound 0.08 µM", "value": 0.739}, {"measurement": "relative viability", "setting": "NCI-H2126; first compound 0.253 µM", "value": 0.726}, {"measurement": "relative viability", "setting": "NCI-H2126; first compound 0.8 µM", "value": 0.753}, {"measurement": "relative viability", "setting": "NCI-H2126; first compound 2.53 µM", "value": 0.704}, {"measurement": "relative viability", "setting": "NCI-H727; first compound 0.08 µM", "value": 0.29}, {"measurement": "relative viability", "setting": "NCI-H727; first compound 0.253 µM", "value": 0.334}, {"measurement": "relative viability", "setting": "NCI-H727; first compound 0.8 µM", "value": 0.295}, {"measurement": "relative viability", "setting": "NCI-H647; first compound 0.08 µM", "value": 1.17}, {"measurement": "relative viability", "setting": "NCI-H647; first compound 0.253 µM", "value": 0.993}, {"measurement": "relative viability", "setting": "NCI-H647; first compound 0.8 µM", "value": 1.17}, {"measurement": "relative viability", "setting": "NCI-H647; first compound 2.53 µM", "value": 1.03}, {"measurement": "relative viability", "setting": "NCI-H1993; first compound 0.08 µM", "value": 0.74}, {"measurement": "relative viability", "setting": "NCI-H1993; first compound 0.253 µM", "value": 0.763}, {"measurement": "relative viability", "setting": "NCI-H1993; first compound 0.8 µM", "value": 0.701}, {"measurement": "relative viability", "setting": "NCI-H1993; first compound 2.53 µM", "value": 0.784}, {"measurement": "relative viability", "setting": "NCI-H520; first compound 0.08 µM", "value": 0.974}, {"measurement": "relative viability", "setting": "NCI-H520; first compound 0.253 µM", "value": 0.985}, {"measurement": "relative viability", "setting": "NCI-H520; first compound 0.8 µM", "value": 0.965}, {"measurement": "relative viability", "setting": "NCI-H520; first compound 2.53 µM", "value": 1.09}, {"measurement": "relative viability", "setting": "NCI-H2009; first compound 0.08 µM", "value": 1.21}, {"measurement": "relative viability", "setting": "NCI-H2009; first compound 0.253 µM", "value": 1.14}, {"measurement": "relative viability", "setting": "NCI-H2009; first compound 0.8 µM", "value": 1.23}, {"measurement": "relative viability", "setting": "NCI-H2009; first compound 2.53 µM", "value": 1.1}, {"measurement": "relative viability", "setting": "SW 1573; first compound 0.08 µM", "value": 0.945}, {"measurement": "relative viability", "setting": "SW 1573; first compound 0.253 µM", "value": 0.744}, {"measurement": "relative viability", "setting": "SW 1573; first compound 0.8 µM", "value": 0.845}, {"measurement": "relative viability", "setting": "SW 1573; first compound 2.53 µM", "value": 0.695}, {"measurement": "relative viability", "setting": "PC-14; first compound 0.08 µM", "value": 0.946}, {"measurement": "relative viability", "setting": "PC-14; first compound 0.253 µM", "value": 0.896}, {"measurement": "relative viability", "setting": "PC-14; first compound 0.8 µM", "value": 0.913}, {"measurement": "relative viability", "setting": "PC-14; first compound 2.53 µM", "value": 0.834}, {"measurement": "relative viability", "setting": "ABC-1; first compound 0.08 µM", "value": 1.04}, {"measurement": "relative viability", "setting": "ABC-1; first compound 0.253 µM", "value": 0.682}, {"measurement": "relative viability", "setting": "ABC-1; first compound 0.8 µM", "value": 0.839}, {"measurement": "relative viability", "setting": "ABC-1; first compound 2.53 µM", "value": 0.593}, {"measurement": "relative viability", "setting": "NCI-H1666; first compound 0.08 µM", "value": 0.926}, {"measurement": "relative viability", "setting": "NCI-H1666; first compound 0.253 µM", "value": 0.868}, {"measurement": "relative viability", "setting": "NCI-H1666; first compound 0.8 µM", "value": 0.921}, {"measurement": "relative viability", "setting": "NCI-H1666; first compound 2.53 µM", "value": 0.976}]}]}
